Laboratory results published in patent publication US7279497B2, “Benzopyran derivatives substituted with secondary amines including imidazole, their preparation and pharmaceutical compositions containing them” (Korea Research Institute of Chemical Technology, priority 2002, dated 2007).
pIC50: −log10 of the molar value.

Tests used:
[1] = system: HUVECs (Human umbilical vein endothelial cells); experiment: Inhibitory effects on HUVEC tube formation; assay type: cell-based;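 as to tube formation: from minus no inhibition up to plus-plus-plus complete inhibition versus vehicle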
How it was run: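 HUVECs within passage 5 were plated on bFGF-reduced polymerized Matrigel and incubated with or without compound. Tube formation assessed as changes in cell morphology by phase-contrast microscopy and photography.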

[2] = system: cerebral cortical neurons; experiment: Protective activity against iron-induced neuronal damage (LDH release); assay type: cell-based; details: Rattus norvegicus, Cortical neurone, FeSO4 50 μM, 24 hours
Procedure: In order to examine whether the compounds of the formula 1 suppress the iron-induced neuronal damage and death, experiments were conducted as follows.
From the brains of 17-18 day-old rat embryos, cerebral cortical neurons were isolated and then, cultured at 37° C. for 7-9 days in a 5% CO2 incubator. The cortical cell cultures were washed twice with a minimum essential medium (MEM) to reduce the serum concentration to 0.2% and pre-treated with test compounds at 30, 7.5, 1.875, and 0.469 μM of final concentrations, each for 30 min. The test compounds were dissolved in DMSO and diluted in a medium. At this time, the final concentration of DMSO was not allowed to exceed 0.2%. For a control group, only vehicle was applied.
After the pre-treatment with test compounds or vehicle, FeSO4 was added to a final concentration of 50 μM, and the cultures were maintained for 24 hours in a CO2 incubator. During incubation, lactate dehydrogenase (LDH) was released into the medium upon neuronal death by the oxidative toxicity of iron. The extent of neuronal damage was assessed by measuring the amount of LDH released into the media. The protective effect of the compounds of interest on neurons was evaluated by calculating the reduction rate of released LDH of treated group compared with that of the control group, and IC50 was calculated as the least linear regression analysis of dose-response curve.

SPF SD rats = details: rat, in vivo, po;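 also: Six-week-old animals, two per group, followed across an observation period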
rat brain homogenate = experiment: Inhibitory activity against iron-induced lipid peroxidation (MDA); assay type: biochemical; details: 30 μM, FeCl2 400 μm
Procedure: In order to examine whether the compounds of the formula 1 suppress the iron-induced lipid peroxidation, experiments were conducted as follows.
The rat brain was homogenized in a Krebs buffer (15 mM HEPES, 10 mM glucose, 140 mM NaCl, 3.6 mM KCl, 1.5 mM CaCl2, 1.4 mM KH2PO4, 0.7 mM MgCl2, pH 7.4) and the supernatant separated by centrifugation at 12,000 rpm for 10 min was used for further experiments. FeCl2 was added to a final concentration of 400 μm in the brain homogenate which was then allowed to stand at 37° C. for 30 min. for the facilitation of oxidation. Each of the test compounds was added at a concentration of 30 μM and vehicle was used as a control.
Iron facilitates the oxidation of the brain homogenate to produce malondialdehyde (MDA), a lipid peroxidation product. Thus, the lipid peroxidation was determined by MDA quantification. The inhibitory effect of the test compounds against the lipid peroxidation was evaluated by calculating MDA reduction rate of the test compounds compared with that of the control group.
Typically, the MDA quantification is achieved by reacting samples with 2-thiobarbituric acid (TBA) and measuring the absorbance at 530 nm. However, this method is unsuitable to treat samples on a large scale because of a boiling step. Thus, in this experiment, N-methyl-2-phenylindole was used instead of TBA. […] Bioxytech^R LPO-586 Kit was used for MDA quantification.

Row | Structure (SMILES) | inhibitory effect on HUVEC tube formation ([1]; 10 uM) | Tube formation ([1]; 10 μM) | inhibitory effect on HUVEC tube formation ([1]; 100 uM) | Tube formation ([1]; 100 μM) | inhibition at 30 µM ([2]; 30 μM, read-out: Neuroprotection inhibition % (LDH release)) [%] | pIC50 ([2]; read-out: Neuroprotection IC50) | clinical symptoms, body weight and mortality (SPF SD rats) | % Inhibition of lipid peroxidation by iron (rat brain homogenate) [%]
1 | COC(OC)[C@@]1(C)Oc2ccc([N+](=O)[O-])cc2[C@H](N(Cc2ncc[nH]2)c2ccc(Cl)cc2)[C@H]1O [Example 2, (2S,3R,4S)-3,4-dihydro-2-dimethoxymethyl-3-hydroxy-2-methyl-6-nitro-4-[N-(4-chlorophenyl)-N-(1H-imidazol-2-ylmethyl)amino]-2H-1-benzopyran] | strong inhibition | ++ | complete inhibition | +++ | 92 | 5.21 | no significant changes | –
2 | COC(OC)[C@@]1(C)Oc2ccc(N)cc2[C@@H](N(Cc2ncc[nH]2)c2ccc(Cl)cc2)[C@@H]1O [Example 24, (2S,3S,4R)-6-amino-3,4-dihydro-2-dimethoxymethyl-3-hydroxy-2-methyl-4-[N-(4-chlorophenyl)-N-(1H-imidazol-2-ylmethyl)amino]-2H-1-benzopyran] | – | + | – | + | – | – | no significant changes | 83
3 | COC(OC)[C@@]1(C)Oc2ccc(N)cc2[C@@H](N(Cc2ncc[nH]2)c2ccc(C(F)(F)F)cc2)[C@@H]1O [Example 25, (2S,3S,4R)-6-amino-3,4-dihydro-2-dimethoxymethyl-3-hydroxy-2-methyl-4-[N-(4-trifluoromethylphenyl)-N-(1H-imidazol-2-ylmethyl)amino]-2H-1-benzopyran] | – | +/− | – | +/− | – | – | no significant changes | 97
